Among the data in PubChem BioAssay (NCI) are TGI and GI50 values, retold here.

“And” between values parts separate entries of the source, which are not always exact repeats. Equal values may be shown once.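 A five-concentration, 48-hour dose response in 96-well plates underlies each endpoint, interpolated linearly between surrounding concentrations. GI50 is the concentration that inhibits growth by half. TGI denotes the concentration required for complete inhibition of growth.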 Some results are limits rather than exact numbers.

Among the test systems are HT29 colon; SK-MEL-2 melanoma; NCI-H23 lung; SNB-75 CNS; SW-620 colon; HCT-15 colon; LOX IMVI melanoma; MDA-N; SF-268 CNS; MALME-3M melanoma.
Holding throughout (assay): NCI-60 cell line screen, 48 h

For the molecule `CC1=CC(=O)/C(=C/N2C(=O)CNC2=S)C(=O)O1`, the TGI with HT29 colon, in the assay on SK-MEL-2 melanoma, with NCI-H23 lung, in the assay with SNB-75 CNS, in the assay on SW-620 colon and in the assay on HCT-15 colon was greater than 100 µM in each case. Moreover, the TGI with LOX IMVI melanoma and in the assay with MDA-N was greater than 100 µM each time.
As to `O=C1/C(=C\c2cccc(Oc3ccccc3)c2)SC(c2ccccc2)N1c1cccc(Cl)c1` (stereo unspecified), the TGI with HT29 colon, in the assay on SK-MEL-2 melanoma, in the assay with NCI-H23 lung, in the assay on SF-268 CNS, in the assay with SW-620 colon and in the assay on HCT-15 colon was greater than 100 µM throughout. Further, the TGI in the assay with LOX IMVI melanoma, in the assay on MDA-N and with MALME-3M melanoma was greater than 100 µM in each case.
With `C(/C=C/Nc1ccc(-c2ccccc2)cc1)=Nc1ccc(-c2ccccc2)cc1`, the TGI in the assay on HT29 colon, in the assay on SK-MEL-2 melanoma, with NCI-H23 lung, with SNB-75 CNS, in the assay on SF-268 CNS and in the assay with SW-620 colon was greater than 100 µM each time. In addition, the TGI with HCT-15 colon, in the assay on LOX IMVI melanoma and in the assay on MDA-N was greater than 100 µM each time.
`CCCCCCCCCC[N+](C)(C)C`: the GI50 is 0.505 µM in the assay on HT29 colon; 2.41 µM in the assay on SK-MEL-2 melanoma; 2 µM in the assay on NCI-H23 lung; 1.26 µM in the assay on SNB-75 CNS; 1.98 µM with SF-268 CNS; 2.13 µM with SW-620 colon. Besides, the values for the GI50 with HCT-15 colon, in the assay on LOX IMVI melanoma and with MALME-3M melanoma were 2.49 µM, 1.41 µM and 2.25 µM, respectively. Also, the TGI came to 2.17 µM in the assay with HT29 colon; 6.61 µM in the assay on SK-MEL-2 melanoma; 6.34 µM in the assay on NCI-H23 lung; 3.69 µM in the assay on SNB-75 CNS; 5.77 µM with SF-268 CNS; 10.1 µM with SW-620 colon. Further, the TGI with HCT-15 colon worked out at 17.1 µM; in the assay on LOX IMVI melanoma it was 2.95 µM; with MALME-3M melanoma it was 8.96 µM.
`O=C(N[C@@H](Cc1ccccc1)B(O)O)[C@H](Cc1cccc2ccccc12)NC(=O)N1CCOCC1`: the TGI with HT29 colon is 0.0105 µM and 0.0106 µM; in the assay on NCI-H23 lung it was 0.00899 µM and 0.0101 µM; in the assay on SNB-75 CNS, 0.0558 µM; with SF-268 CNS it was 0.00654 µM and 0.058 µM; in the assay on SW-620 colon, 0.0125 µM and 0.0101 µM; in the assay on HCT-15 colon it was 0.61 µM and 0.405 µM. Moreover, the TGI is 0.00343 µM in the assay with LOX IMVI melanoma; 0.0103 µM and 0.0226 µM in the assay with MALME-3M melanoma.
In the case of `N#Cc1c2ccc([N+](=O)[O-])cc2c(=O)n2c1sc1ccccc12`, the TGI in the assay with HT29 colon is greater than 100 µM; in the assay on SK-MEL-2 melanoma it was 53.6 µM; in the assay with NCI-H23 lung it was 43 µM; in the assay on SNB-75 CNS, greater than 100 µM; with SF-268 CNS it was greater than 100 µM; with SW-620 colon, greater than 100 µM. Besides, the TGI in the assay on HCT-15 colon, in the assay with LOX IMVI melanoma and with MDA-N was greater than 100 µM each time.
Regarding `CCSc1nc(C)nc2c1sc1nc3ccccc3n12`, the TGI with HT29 colon, in the assay on SK-MEL-2 melanoma, with NCI-H23 lung, in the assay on SNB-75 CNS, with SF-268 CNS and in the assay on SW-620 colon was greater than 100 µM in each case. Moreover, the TGI with HCT-15 colon, in the assay with LOX IMVI melanoma and in the assay on MDA-N was greater than 100 µM throughout.
As for `COc1cc2c3c(c1OC)C(=O)C(=O)C1=C3N(CCC1)CC2`, the TGI with HT29 colon is greater than 100 µM; with SK-MEL-2 melanoma it was greater than 100 µM; in the assay with NCI-H23 lung, 86.3 µM; in the assay on SF-268 CNS, 92.1 µM; with SW-620 colon, greater than 100 µM; with HCT-15 colon it was greater than 100 µM. The TGI in the assay with LOX IMVI melanoma is greater than 100 µM.
With `O=C(Nc1nccs1)NS(=O)(=O)n1cnc2ccccc21`, the TGI in the assay with HT29 colon, with SK-MEL-2 melanoma, in the assay on NCI-H23 lung, in the assay with SNB-75 CNS, in the assay with SF-268 CNS and in the assay with SW-620 colon was greater than 100 µM in each case. Also, the TGI with HCT-15 colon and with MALME-3M melanoma was greater than 100 µM in each case.
For the molecule `CCOC1=NC(C(F)(F)F)(C(F)(F)F)N=C(N2CCCCC2)O1`, the TGI with HT29 colon, in the assay on SK-MEL-2 melanoma, in the assay with NCI-H23 lung, with SNB-75 CNS, in the assay with SF-268 CNS and in the assay with SW-620 colon was greater than 100 µM throughout. The TGI in the assay on HCT-15 colon, with LOX IMVI melanoma and with MALME-3M melanoma was greater than 100 µM throughout.
With `CN(C)c1c(C2CC(O)C(CO)O2)c(=O)c1=O` (stereo unspecified), the TGI with HT29 colon, in the assay on SK-MEL-2 melanoma, in the assay with SNB-75 CNS, in the assay with SF-268 CNS, in the assay with SW-620 colon and in the assay with HCT-15 colon was greater than 100 µM in each case. For the same molecule, the TGI in the assay with LOX IMVI melanoma and in the assay with MDA-N was greater than 100 µM in each case.
Take `CCCCCCC(=O)c1ccc2ccccc2c1O`: the TGI with HT29 colon is greater than 100 µM; in the assay with SK-MEL-2 melanoma, 67.5 µM; with NCI-H23 lung it was greater than 100 µM; in the assay on SNB-75 CNS, greater than 100 µM; in the assay on SF-268 CNS, greater than 100 µM; in the assay on SW-620 colon, greater than 100 µM. The TGI in the assay on HCT-15 colon and in the assay with LOX IMVI melanoma was greater than 100 µM throughout.
Consider `CO/N=C(\C(=O)[N-][n+]1cnn(CC(=O)O)c1)c1csc(N)n1`, for which the TGI in the assay on HT29 colon, in the assay on NCI-H23 lung, in the assay with SNB-75 CNS, in the assay on SF-268 CNS, in the assay with SW-620 colon and in the assay on HCT-15 colon was greater than 10 µM in each case. Moreover, the TGI in the assay with LOX IMVI melanoma and in the assay on MDA-N was greater than 10 µM each time.
`CCOc1cc(/C=C2\N=C(c3ccccc3)N(c3nc4ccccc4s3)C2=O)ccc1O`: the TGI in the assay on HT29 colon was greater than 100 µM; in the assay with SK-MEL-2 melanoma, 62.1 µM; with NCI-H23 lung it was 77.8 µM; with SNB-75 CNS, greater than 100 µM; with SF-268 CNS it was greater than 100 µM; with SW-620 colon it was greater than 100 µM. In addition, the TGI in the assay on HCT-15 colon is 82.5 µM; with LOX IMVI melanoma, greater than 100 µM; in the assay with MDA-N, greater than 100 µM.
In the case of `C[C@H](CO)C1=CC(C#C[Si](C)(C)C)N(C(=O)Oc2ccccc2)c2ccccc21` (stereo partly specified), the TGI in the assay on HT29 colon is 20.5 µM; in the assay with SK-MEL-2 melanoma, 30.2 µM; in the assay on NCI-H23 lung, 15.1 µM; in the assay with SNB-75 CNS, 23 µM; with SF-268 CNS it was 27.6 µM; in the assay on SW-620 colon, greater than 100 µM. The TGI came to 9.71 µM with HCT-15 colon, 33.5 µM in the assay on LOX IMVI melanoma and 13.3 µM in the assay with MDA-N.
